Source: patent publication US20060252807A1, “Novel ortho-terphenyl inhibitors of p38 kinase and methods of treating inflammatory disorders” (Kalypsys, Inc., priority 2005, published 2006)

The compounds below were run against T1, active p38 alpha enzyme (Upstate Biotechnology) (Homo sapiens, UniProt Q16539) (assay: p38α biochemical assay (ATP turnover, luminescent detection, Cambrex PKlight)). Conditions: p38α kinase; Table 1 Biological Activity.
T1 construct: purchased Upstate Biotechnology
Outline: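 Luminescent PKlight readout of total ATP consumption follows a 2 h, 30C kinase reaction. Enzyme and MapkapK2 substrate run with 1.4 uM ATP (final) in buffer containing Mg2+, Ca2+, chelators, glycerol, reducing agent and BSA; test compounds added by pintool from DMSO.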

T1 sequence (Q16539 whole entry): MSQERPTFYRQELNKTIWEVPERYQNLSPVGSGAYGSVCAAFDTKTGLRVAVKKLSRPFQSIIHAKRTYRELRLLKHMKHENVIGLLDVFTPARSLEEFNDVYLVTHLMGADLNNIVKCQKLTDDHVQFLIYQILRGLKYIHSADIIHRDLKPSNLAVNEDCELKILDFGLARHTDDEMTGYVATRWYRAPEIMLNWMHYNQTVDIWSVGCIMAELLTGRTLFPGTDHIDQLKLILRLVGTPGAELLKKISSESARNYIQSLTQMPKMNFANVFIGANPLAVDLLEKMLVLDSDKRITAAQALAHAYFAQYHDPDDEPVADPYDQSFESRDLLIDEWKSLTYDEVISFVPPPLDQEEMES

SMILES	IC50 [µM]
CC(C)NC(=O)c1csc(-c2c(-c3ccc(F)cc3)noc2CNCCc2ccc(S(N)(=O)=O)cc2)n1 [Example 1503]	> 1
CC(C)NC(=O)c1csc(-c2c(-c3ccc(F)cc3)noc2CNCCc2ccc3c(c2)OCO3)n1 [Example 1505]	> 1
CC(C)NC(=O)c1csc(-c2c(-c3ccc(F)cc3)noc2CNCCC(c2ccccc2)c2ccccc2)n1 [Example 1506]	> 1
CCN(C)Cc1onc(-c2ccc(F)cc2)c1-c1nc(C(=O)NC(C)C)cs1 [Example 1511]	> 1
CCN(CC)Cc1onc(-c2ccc(F)cc2)c1-c1nc(C(=O)NC(C)C)cs1 [Example 1513]	> 1
CCCN(C)Cc1onc(-c2ccc(F)cc2)c1-c1nc(C(=O)NC(C)C)cs1 [Example 1514]	≤ 1
CC(C)NC(=O)c1csc(-c2c(-c3ccc(F)cc3)noc2CN(C)CCC#N)n1 [Example 1516]	> 1
CC(C)CN(C)Cc1onc(-c2ccc(F)cc2)c1-c1nc(C(=O)NC(C)C)cs1 [Example 1517]	> 1
CCN(CCO)Cc1onc(-c2ccc(F)cc2)c1-c1nc(C(=O)NC(C)C)cs1 [Example 1520]	> 1
CC(C)NC(=O)c1csc(-c2c(-c3ccc(F)cc3)noc2CN2CCSC2)n1 [Example 1521]	> 1
CC(C)NC(=O)c1csc(-c2c(-c3ccc(F)cc3)noc2CN2CCN(C)CC2)n1 [Example 1524]	> 1
CCCN(CCC)Cc1onc(-c2ccc(F)cc2)c1-c1nc(C(=O)NC(C)C)cs1 [Example 1528]	> 1
CC(C)NC(=O)c1csc(-c2c(-c3ccc(F)cc3)noc2CN(CCO)CCO)n1 [Example 1530]	> 1
CC1CC(C)CN(Cc2onc(-c3ccc(F)cc3)c2-c2nc(C(=O)NC(C)C)cs2)C1 (centres unmarked) [Example 1531]	> 1
CC(C)NC(=O)c1csc(-c2c(-c3ccc(F)cc3)noc2CN(C)C2CCCCC2)n1 [Example 1532]	> 1
CC(C)NC(=O)c1csc(-c2c(-c3ccc(F)cc3)noc2CN2CCC(N(C)C)C2)n1 (centres unmarked) [Example 1534]	> 1
CC(C)NC(=O)c1csc(-c2c(-c3ccc(F)cc3)noc2CN2C[C@@H](C)N[C@@H](C)C2)n1 [Example 1535]	> 1
CC(C)NC(=O)c1csc(-c2c(-c3ccc(F)cc3)noc2CN2CCCC(CO)C2)n1 (centres unmarked) [Example 1536]	> 1
CC(C)NC(=O)c1csc(-c2c(-c3ccc(F)cc3)noc2CN2CCCCC2CO)n1 (centres unmarked) [Example 1539]	> 1
CC(C)NC(=O)c1csc(-c2c(-c3ccc(F)cc3)noc2CN2Cc3ccccc3C2)n1 [Example 1541]	> 1
CC(C)NC(=O)c1csc(-c2c(-c3ccc(F)cc3)noc2CN(C)Cc2ccccc2)n1 [Example 1542]	> 1
CCN(Cc1onc(-c2ccc(F)cc2)c1-c1nc(C(=O)NC(C)C)cs1)C1CCCCC1 [Example 1543]	> 1
CC(C)NC(=O)c1csc(-c2c(-c3ccc(F)cc3)noc2CN2CCC(C(N)=O)CC2)n1 [Example 1544]	> 1
CC(=O)N[C@H]1CCN(Cc2onc(-c3ccc(F)cc3)c2-c2nc(C(=O)NC(C)C)cs2)C1 [Example 1545]	> 1
CC(C)NC(=O)c1csc(-c2c(-c3ccc(F)cc3)noc2CN2CCCCC2CCO)n1 (centres unmarked) [Example 1548]	> 1
CC(C)NC(=O)c1csc(-c2c(-c3ccc(F)cc3)noc2CN(C)CCc2ccccn2)n1 [Example 1553]	> 1
C=CCN(Cc1onc(-c2ccc(F)cc2)c1-c1nc(C(=O)NC(C)C)cs1)C1CCCCC1 [Example 1556]	> 1
COC(=O)C1CCN(Cc2onc(-c3ccc(F)cc3)c2-c2nc(C(=O)NC(C)C)cs2)CC1 [Example 1557]	> 1

Next, values leading:

IC50 [µM]	SMILES
> 1	CC(C)NC(=O)c1csc(-c2c(-c3ccc(F)cc3)noc2CNCc2ccccc2OC(F)(F)F)n1 [Example 1502]
> 1	COc1ccc(C(=O)CNCc2onc(-c3ccc(F)cc3)c2-c2nc(C(=O)NC(C)C)cs2)cc1 [Example 1504]
> 1	Cc1ccc(S(=O)(=O)NCCNCc2onc(-c3ccc(F)cc3)c2-c2nc(C(=O)NC(C)C)cs2)cc1 [Example 1507]
> 1	CC(C)NC(=O)c1csc(-c2c(-c3ccc(F)cc3)noc2CN(C)C)n1 [Example 1508]
> 1	CC(C)NC(=O)c1csc(-c2c(-c3ccc(F)cc3)noc2CN2CCOCC2)n1 [Example 1509]
> 1	C#CCN(C)Cc1onc(-c2ccc(F)cc2)c1-c1nc(C(=O)NC(C)C)cs1 [Example 1512]
≤ 1	CC(C)NC(=O)c1csc(-c2c(-c3ccc(F)cc3)noc2CN(C)CCO)n1 [Example 1515]
> 1	CCN(Cc1onc(-c2ccc(F)cc2)c1-c1nc(C(=O)NC(C)C)cs1)C(C)C [Example 1518]
> 1	CCCCN(C)Cc1onc(-c2ccc(F)cc2)c1-c1nc(C(=O)NC(C)C)cs1 [Example 1519]
> 1	CC(C)NC(=O)c1csc(-c2c(-c3ccc(F)cc3)noc2CN2CCCCC2C)n1 (centres unmarked) [Example 1522]
> 1	CC1CCN(Cc2onc(-c3ccc(F)cc3)c2-c2nc(C(=O)NC(C)C)cs2)CC1 [Example 1523]
≤ 1	CC(C)NC(=O)c1csc(-c2c(-c3ccc(F)cc3)noc2CN2CCCC2CO)n1 (centres unmarked) [Example 1525]
> 1	CC(C)NC(=O)c1csc(-c2c(-c3ccc(F)cc3)noc2CN2CCC[C@@H]2CO)n1 [Example 1526]
> 1	CCCCN(CC)Cc1onc(-c2ccc(F)cc2)c1-c1nc(C(=O)NC(C)C)cs1 [Example 1527]
> 1	CC(C)NC(=O)c1csc(-c2c(-c3ccc(F)cc3)noc2CN2CCSCC2)n1 [Example 1529]
> 1	CC(C)NC(=O)c1csc(-c2c(-c3ccc(F)cc3)noc2CN2C(C)CCCC2C)n1 (centres unmarked) [Example 1533]
> 1	COC[C@@H]1CCCN1Cc1onc(-c2ccc(F)cc2)c1-c1nc(C(=O)NC(C)C)cs1 [Example 1537]
> 1	CC(C)NC(=O)c1csc(-c2c(-c3ccc(F)cc3)noc2CN2CC(C)OC(C)C2)n1 (centres unmarked) [Example 1538]
> 1	CCN(CCCCO)Cc1onc(-c2ccc(F)cc2)c1-c1nc(C(=O)NC(C)C)cs1 [Example 1540]
> 1	CC(C)NC(=O)c1csc(-c2c(-c3ccc(F)cc3)noc2CN2CCCC(C(N)=O)C2)n1 (centres unmarked) [Example 1547]
> 1	CC(C)NC(=O)c1csc(-c2c(-c3ccc(F)cc3)noc2CN2CCc3ccccc3C2)n1 [Example 1549]
> 1	CCN(Cc1ccccc1)Cc1onc(-c2ccc(F)cc2)c1-c1nc(C(=O)NC(C)C)cs1 [Example 1550]
> 1	CC(C)NC(=O)c1csc(-c2c(-c3ccc(F)cc3)noc2CN(C)CCc2ccccc2)n1 [Example 1552]
≤ 1	CC(C)NC(=O)c1csc(-c2c(-c3ccc(F)cc3)noc2CN(C)CCc2ccccn2)n1 [Example 1554]
> 1	CC(C)NC(=O)c1csc(-c2c(-c3ccc(F)cc3)noc2CN2CCCC3CCCCC32)n1 (centres unmarked) [Example 1555]
> 1	CC(C)NC(=O)c1csc(-c2c(-c3ccc(F)cc3)noc2CN(Cc2ccccc2)C(C)C)n1 [Example 1558]
> 1	CC(C)NC(=O)c1csc(-c2c(-c3ccc(F)cc3)noc2CN(CCO)Cc2ccccc2)n1 [Example 1559]
> 1	CC(C)NC(=O)c1csc(-c2c(-c3ccc(F)cc3)noc2CN(C)CC(O)c2ccccc2)n1 (centres unmarked) [Example 1560]
